Key:
SUM159 cells = assay: SUM159 cell growth (Cell-Titer Glo, cell counts); assay type: cell-based, human; conditions: for SUM159 cell growth inhibition in combination with AZD6244 / SUM159 cell growth inhibition, RTK inhibitor as single agent: Cell-Titer Glo (FIG. 5C, 5D)
Method: (§1) Cell Culture: MDA-MB-231 cells were grown in DMEM/F12 supplemented with 10% FBS. SUM-159 cells were grown in DMEM/F12 supplemented with 10% FBS 1 μg/mL hydrocortisone, and 5 μg/mL insulin. SUM159-R cells were continually grown in the presence of 5 μM AZD6244. For SILAC labeling, cells were grown for five doublings in arginine- and lysine-depleted media (as above) supplemented with either unlabeled L-arginine (42 mg/L) and L-lysine (71 mg/L) or equimolar amounts of heavy isotope labeled [13C6,15N4]arginine (Arg10) and [13C6]lysine (Lys6) (Cambridge Isotope Laboratories). Proliferation was quantified using Cell-Titer Glo Luminescent Cell Viability Assay (Promega). Fresh media containing DMSO or kinase inhibitors was added daily and experiments were performed in triplicate.

ERK1/2 [1] = assay: Western blot of MEK/ERK signaling in SUM159 cells; assay type: cell-based, human; conditions: BEZ235 (FIG. 10F)
Text: (§2) Detailed methods and antibodies are provided in Supplemental Experimental Procedures.
(§3) Western blotting: Proteins from cell lysates were separated by SDS-PAGE chromatography, transferred to nitrocellulose membranes, and probed with the indicated primary antibodies. Antibodies recognizing pAKT (S473), pAKT (T308), AURA, pAXL (Y702), AXL, c-Myc, DDR1, EGFR, pERK1/2 (T202/Y204), pHER3 (Y1197), MAX, pMEK1/2 (S217/S221), MEK1/2, MKP3, pP70S6K (T389), pPDGFRβ (Y751), pPDGFRβ (Y1009), pPDGFR (Y857), PDGFRβ, pRAF (S338), pRSK1 (T359/S363), pVEGFR2 (Y1175), VEGFR2 were obtained from Cell Signaling Technology. Antibodies for Cyclin A2, Cyclin B1, Cyclin D1, ERK2, RAF, and pRAF (S259) were obtained from Santa Cruz Biotechnology. The antibody recognizing Bim was obtained from Chemicon. The antibody recognizing p-c-Myc (S62) was obtained from Abeam. Secondary HRP-anti-rabbit and HRP-anti-goat secondary antibodies were from Jackson Immunoresearch Laboratories and Santa Cruz Biotechnology, respectively. Western blots were visualized by incubation with SuperSignal West Pico Chemiluminescent Substrate (Thermo Scientific).

RTKs [2] = assay: RTK tyrosine phosphorylation/expression in SUM159 cells (RTK arrays, western blot); assay type: cell-based, human
Method: (§4) Western blotting and RTK arrays: Western blotting and RTK array analysis were performed as previously described (Amin et al., 2010). Amin et al. 2010 Sci Transl Med 2, 16ra17. Detailed methods and antibodies are provided in Supplemental Experimental Procedures.
as §3
RTK arrays: Cells were harvested in RTK array lysis buffer containing 20 mM Tris-HCl (pH 8.0), 1% NP-40, 10% glycerol, 137 mM NaCl, 2 mM EDTA, 1×EDTA-free protease inhibitor cocktail (Roche), and 1% each of phosphatase inhibitor cocktails 1 and 2 (Sigma). After incubating on ice for 20 minutes, cell debris was pelleted at 4° C. Lysates (500 μg protein) were applied to R&D Systems Proteome Profiler™ Human Phospho-RTK antibody arrays. Washing and secondary antibody steps were performed according to the manufacturer“s instructions. RTK arrays were visualized by SuperSignal West Pico Chemiluminescent Substrate (Thermo Scientific).

c-Myc = c-Myc protein and RNA levels in SUM159 cells (western blot, qRT-PCR); assay type: cell-based, human
Method: as §4
qRT-PCR: Total RNA was isolated from human breast cancer cell lines or murine tumors using the RNeasy® Plus Mini Kit (Qiagen). Real-time RT-PCR was performed on diluted cDNA using the Applied Biosystems 7500 Fast Real-Time PCR System (standard program) and inventoried TaqMan® Gene Expression Assays. Each cDNA sample was assayed in triplicate. Fold change with respect to the calibrator represents the average of the triplicate values, with error bars representing the range of the mean (95% confidence).
as §3

p70 S6 kinase [3] = assay: p70 S6 kinase activity in SUM159 cells; assay type: cell-based, human; conditions: BEZ235 (FIG. 10F)
Text: as §2, §3

p70 S6 kinase [4] = assay: p70 S6 kinase activity in HPAC pancreatic cancer cells; assay type: cell-based
Method: (§5) Kinome reprogramming in pancreatic cancer—cell type and inhibitor specific. The kinome response to drug in 3 pancreatic cancer cell lines (HPAC, AsPC-1, HPAF-II) was also evaluated using 3 kinase inhibitors that are currently in Phase I/II clinical trials: BKM120 (Novartis), an oral pan-class 1 PI3K inhibitor, […] (Glaxo Smith-Kline), an ATP competitive PI3K/mTOR inhibitor, and GSK1120212, a reversible allosteric inhibitor of MEK1/2 (Glaxo Smith-Kline). The kinome response for GSK2126458 and GSK1120212 was compared using MIB/MS and RTK arrays to determine if kinome reprogramming was inhibitor-specific. […] Thus, kinome reprogramming is target-specific.

[5] = test system: ALK, RET, INSR and IGF-1R; assay: RTK phosphorylation in pancreatic cancer cells (RTK arrays); assay type: cell-based
Method: as §5
Kinome reprogramming in pancreatic cancer cell lines: HPAC, AsPC-1, HPAF-II cell lines were treated with either GSK1120212, GSK2126458, BKM120 or vehicle control and harvested at […]. Normalized spot intensity of RTK arrays were measured and activated and repressed RTK were determined in response to either GSK1120212 or GSK2126458 4 h and 72 h after treatment.

RTKs [6] = assay: RTK expression in SUM159-R cells (western blot, qRT-PCR); assay type: cell-based, human; conditions: 10 nM bortezomib, 24 h
Method: as §2
(§6) Generation of AZD6244 resistant SUM159 cells: SUM159 cells were cultured in DMEM/F12 supplemented with 10% FBS media containing 5 μM AZD6244. Media was changed every 2 days, maintaining inhibitor concentrations of 5 μM AZD6244.

MDA-MB-231 cells = assay: MDA-MB-231 cell growth (Cell-Titer Glo); assay type: cell-based, human; conditions: for MDA-MB-231 cell growth in combination with AZD6244: combination with AZD6244 (FIG. 12C, 12D, 12G)
Method: as §1

SUM159-R cells = assay: Growth of AZD6244-resistant SUM159-R cells; assay type: cell-based, human; conditions: 250 nM sorafenib, 72 h, cells grown in 5 μM AZD6244
Method: as §1, §6

ERK1/2 [7] = assay: ERK activity in SUM159-R cells (western blot); assay type: cell-based, human; conditions: sorafenib (250 nM) added to 5 μM AZD6244
Method: as §2, §6, §3

C3Tag tumors = assay: In vivo tumorigenesis experiment, C3Tag TNBC GEMM (tumor volume); parameters: species or system mouse; conditions: C3Tag mice, 21 days, sorafenib 30 mg/kg in diet
Method: In vivo tumorigenesis experiments: Animal handling and procedures were approved by the University of North Carolina at Chapel Hill Institutional Animal Care and Use Committee and followed the NIH guidelines. Male C3Tag mice were bred with wild type females to produce experimental offspring. Mice were examined for tumors weekly until a palpable mass was found. Treatment began the same day. Tumor size was assessed twice weekly by caliper measurements of tumor areas ((width)2×length))/2 for 21 days. Percent change of tumor volume was calculated using (Final volume−Initial Volume)/Initial Volume and graphed using R (http://www.r-project.org/). Drugs were incorporated into the diet of mice to achieve a daily dose of AZD6244 20 mg/kg and sorafenib 30 mg/kg. Food was provided ab libitum and the amount of daily food intake was pre-determined using Jackson Labs Phenome Database. Tumors at harvest were cut in half and either snap-frozen in liquid nitrogen and stored at −80° C. or placed in neutral buffered 10% formalin solution.

ERK = assay: MEK/ERK activation in C3Tag tumors (western blot); assay type: in vivo, mouse; conditions: AZD6244 20 mg/kg 28 days; sorafenib 30 mg/kg 26 days
Method: (§7) Treatment began the same day. Tumor size was assessed twice weekly by caliper measurements of tumor areas ((width)2×length))/2 for 21 days. […] Drugs were incorporated into the diet of mice to achieve a daily dose of AZD6244 20 mg/kg and sorafenib 30 mg/kg. […] Tumors at harvest were cut in half and either snap-frozen in liquid nitrogen and stored at −80° C. or placed in neutral buffered 10% formalin solution.
as §3, with “Western blots were visualized by incubation with SuperSignal West Pico Chemiluminescent Substrate (Thermo Scientific).” left out

RTKs [8] = assay: RTK expression in C3Tag tumors (western blot); assay type: in vivo, mouse; conditions: AZD6244 20 mg/kg 28 days; sorafenib 30 mg/kg 26 days
Method: as §7, §3

[9] = test system: kinome (kinase binding to MIBs) of C3Tag tumors; assay: MIB/MS kinome profile of C3Tag tumors; assay type: in vivo, mouse; conditions: sorafenib 30 mg/kg, 26 days
Text: Multiplexed inhibitor bead affinity chromatography: Cells and tumors were lysed and harvested as previously described (Oppermann et al., 2009). Oppermann et al., 2009 Mol Cell Proteo 8 1751-1764. Briefly, lysates were brought to 1 M NaCl and passed through columns of washed inhibitor-conjugated beads (bisindoylmaleimide-X, SB203580, lapatinib, dasatinib, purvalanol B, VI16832, PP58) to isolate protein kinases from the lysates (see Supplemental Experimental Procedures for MIBs preparation). Kinase-bound inhibitor beads were washed with high-salt buffer and 0.1% SDS before elution in 0.5% SDS solution in high heat. Proteins were purified using chloroform/methanol extraction, resuspended in 50 mM ammonium bicarbonate (pH 8.0) or 50 mM HEPES (pH 8.0) for SILAC or iTRAQ respectfully. […]
LC-MS/MS analysis: MS and MS/MS data were acquired using a MALDI TOF/TOF 5800 (AB SCIEX). Peptides were analyzed using ProteinPilot Software Version 3.0 (AB SCIEX) and identification using UniProtKB/Swiss-Prot database (release Oct. 15, 2009). […] ProteinPilot software 3.0 identified and quantified changes in kinase binding to MIBs utilizing the Pro Group Algorithm. […]
Treatment began the same day. Tumor size was assessed twice weekly by caliper measurements of tumor areas ((width)2×length))/2 for 21 days. […]

Cn1c(=O)n(-c2ccc(C(C)(C)C#N)cc2)c2c3cc(-c4cnc5ccccc5c4)ccc3ncc21 [BEZ235]
growth of SUM159 cells (SUM159 cells; BEZ235 50 nM): strongly growth arrests | effect on the ERK pathway (ERK1/2 [1]): little effect | RTK phosphorylation profile (RTKs [2]; 5 μM AZD6244, 50 nM BEZ235 (FIG. 3H)): did not change the RTK phosphorylation profile except for an increase in phospho-AXL | c-Myc expression (c-Myc; BEZ235 100 nM (FIG. 11C)): does not change | p70 S6 kinase activity (p70 S6 kinase [3]): inhibits p70 S6 kinase activity

COc1ncc(-c2ccc3nccc(-c4ccnnc4)c3c2)cc1NS(=O)(=O)c1ccc(F)cc1F [GSK2126458]
p70 S6 kinase activity (p70 S6 kinase [4]): inhibited p70 S6 kinase activity | ALK, RET, INSR and IGF-1R phosphorylation [5]: induced ALK, RET, INSR and IGF-1R phosphorylation

CC(C)C[C@H](NC(=O)[C@H](Cc1ccccc1)NC(=O)c1cnccn1)B(O)O [bortezomib]
AZD6244-dependent upregulation of RTKs (RTKs [2]; bortezomib 3, 10 or 20 nM with 5 μM AZD6244, 24 h): inhibited upregulation of RTKs | AZD6244-induced c-Myc degradation (c-Myc; bortezomib with 5 μM AZD6244, 24 h): prevented AZD6244-induced c-Myc degradation | RTK expression in SUM159-R cells (RTKs [6]): readily reversed RTK expression

COc1cc2c(Oc3ccc(NC(=O)C4(C(=O)Nc5ccc(F)cc5)CC4)cc3F)ccnc2cc1OCCCN1CCOCC1 [foretinib]
SUM159 cell growth inhibition in combination with AZD6244 (SUM159 cells): synergistic | SUM159 cell growth inhibition, RTK inhibitor as single agent (SUM159 cells): ineffective as single agents | MDA-MB-231 cell growth in combination with AZD6244 (MDA-MB-231 cells): little effect

CCCS(=O)(=O)Nc1ccc(F)c(C(=O)c2c[nH]c3ncc(Cl)cc23)c1F [PLX4720]
growth of SUM159 cells, RAF inhibitor in combination with AZD6244 (SUM159 cells; cotreatment 72 h (FIG. 12F)): stimulated the growth

CNC(=O)c1cc(Oc2ccc(NC(=O)Nc3ccc(Cl)c(C(F)(F)F)c3)cc2)ccn1 [sorafenib]
SUM159 cell growth inhibition in combination with AZD6244 (SUM159 cells): synergistic | SUM159 cell growth inhibition, RTK inhibitor as single agent (SUM159 cells): ineffective as single agents | growth of SUM159 cells, sorafenib at the highest dose tested in combination with AZD6244 (SUM159 cells; highest dose tested, 72 h): synergistically inhibited growth | SUM159 proliferation, sorafenib at low doses in combination with AZD6244 (SUM159 cells; low doses, 72 h): did not significantly stimulate proliferation | MDA-MB-231 cell growth in combination with AZD6244 (MDA-MB-231 cells): synergizes | growth of SUM159-R cells, cell counts (SUM159-R cells): Inhibited cell growth | Tyr phosphorylation of RTKs induced by AZD6244 (RTKs [2]; RTK arrays, 72 h, with AZD6244): inhibited Tyr phosphorylation of multiple RTKs | ERK activity in SUM159-R cells (ERK1/2 [7]): inhibited ERK activity | effect on tumor progression (C3Tag tumors): no effect | tumor MEK and ERK compared to untreated animals (ERK): strongly activated | expression of RTKs in C3Tag tumors versus untreated (RTKs [8]): do not alter RTK expression | MIB binding of BRAF, PDGFRβ, CSF1R, DDR1, DDR2, KIT, MLTK and FRK [9]: decreased MIB binding

N#CC(=C(/N)Sc1ccccc1N)/C(C#N)=C(\N)Sc1ccccc1N [U0126]
growth of SUM159 cells (SUM159 cells; 5 μM MEK inhibitor (FIG. 2A)): inhibited growth | growth of MDA-MB-231 cells (MDA-MB-231 cells; 5 μM MEK inhibitor (FIG. 9A)): inhibited growth
